Experimental data: ChEMBL document CHEMBL1201862, “PubChem BioAssay data set” (2004)
Calls of active or inactive are those of the source.

Assays:
[1] = inhibition of ARNT PAS-B/TACC3 complex formation – biochemical, AlphaScreen, cherry-picked samples, confirmation (AID 651703); type: functional, Homo sapiens;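 note: His-tagged ARNT PAS-B domain paired with GST-TACC3 E629A dimer coactivator fragment; potency of inhibitors that break up the complex and lower AlphaScreen signal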
[2] = biological target: Melanin-concentrating hormone receptor 1 (Homo sapiens, UniProt Q99705); assay: Late-stage fluorescence-based counterscreen for antagonists of the G-protein coupled receptor 7 (GPR7): cell-based dose response assay to identify antagonists of the melanin-concentrating hormone receptor 1 (MCHR1) Set 5.; type: functional
[3] = biological target: T1, Neuropeptides B/W receptor type 1 (Homo sapiens, UniProt P48145); assay: human NPBW1 receptor blockade, IC50 – cell-based, fluorescence, dose response, set 5, late-stage follow-up (AID 588566); type: functional
T1 sequence (P48145 whole entry): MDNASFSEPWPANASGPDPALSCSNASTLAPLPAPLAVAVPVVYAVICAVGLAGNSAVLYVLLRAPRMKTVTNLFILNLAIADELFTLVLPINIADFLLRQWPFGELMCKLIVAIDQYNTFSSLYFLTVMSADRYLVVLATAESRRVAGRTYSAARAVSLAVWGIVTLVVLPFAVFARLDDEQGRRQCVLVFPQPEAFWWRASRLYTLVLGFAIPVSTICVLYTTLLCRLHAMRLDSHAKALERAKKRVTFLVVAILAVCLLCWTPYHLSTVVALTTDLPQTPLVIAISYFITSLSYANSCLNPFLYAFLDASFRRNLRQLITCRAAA

[4] = biological target: T2, ATP-dependent translocase ABCB1 (Homo sapiens, UniProt P08183); assay: P-gp JC-1 efflux blockade concentration-response – Jurkat-DNR cells, flow cytometry, set 2, dose response (AID 504569); type: functional; conditions: read-out: EC50_MICROM_;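 note: potency of pump inhibitors that raise cellular JC-1 green fluorescence up to the nicardipine level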
[5] = biological target: T2, ATP-dependent translocase ABCB1; assay: inhibition of BCRP-mediated JC-1 efflux – Ig-MXP3 cells, flow cytometry, set 2, dose response (AID 504566); type: functional; conditions: read-out: EC50_MICROM_;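 note: flow cytometry median green fluorescence of retained JC-1 dye; potency of efflux pump inhibition measured as rising substrate retention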
[6] = biological target: Mitochondrial peptide methionine sulfoxide reductase (Bos taurus, UniProt P54149); type: functional;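 note: absorbance read-out, biochemical high-throughput dose-response screen for MsrA inhibitors, confirmatory; recombinant bovine MsrA coupled to E. coli TrxB with NADPH and selenocystamine; potency is for inhibitors of MsrA activity on DMSO substrate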
[7] = biological target: T3, Calpain-2 catalytic subunit (Sus scrofa, UniProt P43367); assay: m-calpain protease blockers, concentration series – biochemical, fluorogenic peptide substrate, dose response (AID 1420); type: functional
T3 sequence (P43367 whole entry): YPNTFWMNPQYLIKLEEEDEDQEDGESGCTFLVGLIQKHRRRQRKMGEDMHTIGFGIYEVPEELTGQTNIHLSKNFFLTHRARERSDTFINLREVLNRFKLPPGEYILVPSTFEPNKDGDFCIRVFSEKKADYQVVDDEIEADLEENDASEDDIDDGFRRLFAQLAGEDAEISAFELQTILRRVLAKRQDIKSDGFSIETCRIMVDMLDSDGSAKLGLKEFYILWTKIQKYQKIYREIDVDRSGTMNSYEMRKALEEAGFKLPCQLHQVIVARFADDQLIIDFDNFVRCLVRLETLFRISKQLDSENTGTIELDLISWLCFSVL

[8] = biological target: Activin receptor type-1 (Homo sapiens, UniProt Q04771); assay: Navigating the Kinome. Panel member name: ACVR1; type: functional
Sequence of Activin receptor type-1 (Q04771 whole entry): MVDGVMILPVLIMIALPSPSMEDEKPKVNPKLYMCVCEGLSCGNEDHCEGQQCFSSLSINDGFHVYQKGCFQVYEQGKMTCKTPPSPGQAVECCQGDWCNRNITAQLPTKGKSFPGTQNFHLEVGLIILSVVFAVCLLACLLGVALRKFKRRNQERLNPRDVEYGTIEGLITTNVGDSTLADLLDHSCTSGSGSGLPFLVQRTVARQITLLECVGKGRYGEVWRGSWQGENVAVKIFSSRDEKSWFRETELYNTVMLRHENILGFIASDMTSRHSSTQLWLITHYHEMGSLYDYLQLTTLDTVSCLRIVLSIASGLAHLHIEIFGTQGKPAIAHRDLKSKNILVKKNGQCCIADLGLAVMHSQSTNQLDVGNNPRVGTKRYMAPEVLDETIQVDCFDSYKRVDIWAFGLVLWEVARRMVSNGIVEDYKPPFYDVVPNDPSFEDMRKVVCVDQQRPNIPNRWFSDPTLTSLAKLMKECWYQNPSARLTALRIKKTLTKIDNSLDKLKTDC

Sequence of Melanin-concentrating hormone receptor 1 (Q99705 whole entry): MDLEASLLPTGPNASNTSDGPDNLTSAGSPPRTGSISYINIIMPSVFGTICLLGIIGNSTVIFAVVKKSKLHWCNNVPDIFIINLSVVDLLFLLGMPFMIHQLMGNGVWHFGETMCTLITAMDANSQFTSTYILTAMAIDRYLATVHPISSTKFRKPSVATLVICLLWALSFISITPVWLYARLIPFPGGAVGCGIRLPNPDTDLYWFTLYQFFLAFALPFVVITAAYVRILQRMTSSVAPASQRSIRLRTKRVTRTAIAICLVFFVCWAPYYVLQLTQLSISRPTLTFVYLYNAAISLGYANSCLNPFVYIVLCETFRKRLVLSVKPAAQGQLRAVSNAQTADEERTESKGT
T2 sequence (P08183 whole entry): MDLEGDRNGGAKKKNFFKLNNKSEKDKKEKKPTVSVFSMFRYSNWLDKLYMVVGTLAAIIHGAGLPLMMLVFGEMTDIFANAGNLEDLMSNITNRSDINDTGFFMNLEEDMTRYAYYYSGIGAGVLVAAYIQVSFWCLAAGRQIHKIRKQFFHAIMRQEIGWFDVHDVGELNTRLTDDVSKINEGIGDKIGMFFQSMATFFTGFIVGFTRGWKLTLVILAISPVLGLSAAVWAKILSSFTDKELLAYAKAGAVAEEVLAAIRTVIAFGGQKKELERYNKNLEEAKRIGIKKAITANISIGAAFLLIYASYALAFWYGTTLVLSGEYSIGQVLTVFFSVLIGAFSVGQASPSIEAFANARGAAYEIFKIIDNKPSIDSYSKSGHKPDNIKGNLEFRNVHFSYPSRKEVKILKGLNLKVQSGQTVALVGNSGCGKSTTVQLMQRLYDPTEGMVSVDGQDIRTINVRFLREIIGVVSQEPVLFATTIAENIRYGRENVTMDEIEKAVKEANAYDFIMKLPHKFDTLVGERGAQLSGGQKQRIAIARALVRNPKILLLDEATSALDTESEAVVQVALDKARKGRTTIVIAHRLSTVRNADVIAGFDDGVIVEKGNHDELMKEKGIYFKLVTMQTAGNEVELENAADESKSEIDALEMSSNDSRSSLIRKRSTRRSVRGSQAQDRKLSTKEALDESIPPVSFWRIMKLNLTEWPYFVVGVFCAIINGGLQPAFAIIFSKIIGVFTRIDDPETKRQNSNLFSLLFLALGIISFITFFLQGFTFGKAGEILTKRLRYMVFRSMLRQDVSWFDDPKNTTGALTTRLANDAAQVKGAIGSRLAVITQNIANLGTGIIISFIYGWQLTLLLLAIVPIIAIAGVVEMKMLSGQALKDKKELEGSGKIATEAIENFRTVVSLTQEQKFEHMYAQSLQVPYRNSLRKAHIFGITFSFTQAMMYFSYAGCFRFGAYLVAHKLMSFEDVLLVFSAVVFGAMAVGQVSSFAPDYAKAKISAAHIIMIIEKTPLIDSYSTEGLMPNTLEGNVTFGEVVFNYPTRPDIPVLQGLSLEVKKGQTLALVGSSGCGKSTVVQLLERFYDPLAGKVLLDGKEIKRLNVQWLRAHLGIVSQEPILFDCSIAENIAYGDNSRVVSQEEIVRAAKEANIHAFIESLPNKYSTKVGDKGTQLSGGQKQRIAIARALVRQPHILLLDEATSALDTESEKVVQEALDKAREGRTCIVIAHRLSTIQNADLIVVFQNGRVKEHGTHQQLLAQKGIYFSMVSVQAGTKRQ
Sequence of Mitochondrial peptide methionine sulfoxide reductase (P54149 whole entry): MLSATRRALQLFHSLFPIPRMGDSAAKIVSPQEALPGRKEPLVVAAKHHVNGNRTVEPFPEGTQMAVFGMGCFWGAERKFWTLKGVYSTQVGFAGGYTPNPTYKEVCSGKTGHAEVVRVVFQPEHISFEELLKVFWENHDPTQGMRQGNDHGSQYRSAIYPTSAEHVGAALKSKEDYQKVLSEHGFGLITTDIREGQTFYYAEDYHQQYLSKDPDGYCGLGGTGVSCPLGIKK

**Q.** For `NC(=O)c1[nH]cnc1N`, which AC50 [1] is on record?
**A.** 90.5 µM (active)

**Q.** With `CCOC(=O)C(C#N)c1c(Cl)cnn(C2c3ccccc3-c3ccccc32)c1=O` (stereo not given) as the compound, how does the IC50 [2] read?
**A.** 7.86 µM (active)

**Q.** What about the IC50 [3] of the same compound?
**A.** 2.9 µM (active)

**Q.** For `O=C(C1CCCCN1C1c2ccccc2CCc2ccccc21)N1CCN(c2ccc([N+](=O)[O-])cc2)CC1` (stereo not given), which IC50 [2] is on record?
**A.** > 20 µM (inactive)

**Q.** And the IC50 [3]?
**A.** > 20 µM (inactive)

**Q.** Which results are given for `COc1cccc(-c2cc3nc(-c4ccccc4)cc(N4CCN(C(=O)c5ccco5)CC4)n3n2)c1`?
**A.** EC50 [4]: 4.32 µM (active); EC50 [5]: 1.17 µM (active)

**Q.** Which IC50 [6] does the source give for `CCOC(=O)C(C)/C(C)=N\Nc1ccc([N+](=O)[O-])cc1[N+](=O)[O-]` (stereo not given) here?
**A.** 155 µM (inactive)

**Q.** What about the IC50 [7] of the same compound?
**A.** > 50 µM (not active)

**Q.** For `C=CCn1c(=O)c2cnc(Nc3ccc(N4CCN(C)CC4)cc3)nc2n1-c1cccc(C(C)(C)O)n1` [ADAVOSERTIB], which Ki [8] is on record?
**A.** > 3.98 µM (inactive)
